Each structure is given as a SMILES string.

T1 sequence (P41594 21-1212): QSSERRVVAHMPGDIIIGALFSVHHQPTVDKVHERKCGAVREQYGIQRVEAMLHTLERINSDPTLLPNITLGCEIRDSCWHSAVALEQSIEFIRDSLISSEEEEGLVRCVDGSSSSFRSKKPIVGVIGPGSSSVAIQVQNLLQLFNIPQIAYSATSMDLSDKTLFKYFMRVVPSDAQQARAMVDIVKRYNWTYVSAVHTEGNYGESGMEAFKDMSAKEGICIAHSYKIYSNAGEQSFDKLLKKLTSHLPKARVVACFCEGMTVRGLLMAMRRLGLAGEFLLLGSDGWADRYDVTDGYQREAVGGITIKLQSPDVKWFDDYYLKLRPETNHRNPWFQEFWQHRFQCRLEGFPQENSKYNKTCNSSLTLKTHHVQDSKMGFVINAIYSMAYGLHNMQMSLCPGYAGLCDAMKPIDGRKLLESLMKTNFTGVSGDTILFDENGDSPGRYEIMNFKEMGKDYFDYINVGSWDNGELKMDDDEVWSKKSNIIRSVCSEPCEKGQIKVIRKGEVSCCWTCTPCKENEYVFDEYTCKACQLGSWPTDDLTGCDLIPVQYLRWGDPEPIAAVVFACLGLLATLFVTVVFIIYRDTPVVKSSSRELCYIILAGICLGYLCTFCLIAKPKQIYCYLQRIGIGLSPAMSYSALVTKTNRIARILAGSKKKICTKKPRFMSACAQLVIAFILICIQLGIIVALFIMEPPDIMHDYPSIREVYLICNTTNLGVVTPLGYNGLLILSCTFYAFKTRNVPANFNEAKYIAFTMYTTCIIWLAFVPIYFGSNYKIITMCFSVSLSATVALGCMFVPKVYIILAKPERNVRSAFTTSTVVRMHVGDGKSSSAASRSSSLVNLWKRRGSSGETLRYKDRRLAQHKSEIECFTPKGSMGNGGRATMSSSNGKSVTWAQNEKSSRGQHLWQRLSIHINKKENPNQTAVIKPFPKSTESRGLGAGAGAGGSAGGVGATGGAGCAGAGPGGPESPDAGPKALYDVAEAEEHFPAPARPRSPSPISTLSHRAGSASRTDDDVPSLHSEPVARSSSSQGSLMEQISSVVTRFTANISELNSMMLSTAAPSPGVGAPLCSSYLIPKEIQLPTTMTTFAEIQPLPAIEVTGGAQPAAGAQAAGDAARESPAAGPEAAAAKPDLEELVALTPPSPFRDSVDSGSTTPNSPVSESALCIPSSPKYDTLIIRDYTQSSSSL

This assay has as its target T1, human recombinant mGluR5 (Homo sapiens, UniProt P41594).
T1 construct: expressed in transfected cells; host or cells: HEK 293 cell line; cultured with tetracycline, hygromycin and geneticin; tetracycline withdrawn 3-7 days before the assay
Kind of assay: positive modulation of mGluR5, calcium based FLIPR assay in HEK 293 cells. Conditions: HEK 293 cell line expressing human recombinant mGluR5; peak height of Ca release fluorescence signal after glutamate at approximately 5% basal stimulation; nonlinear regression. Here is the method: The positive modulation of mGluR5 is measured in a HEK 293 cell line expressing human recombinant mGluR5 and is detected with calcium based FLIPR assay. The cells are cultured with DMEM supplemented with 10% FCS, 2 μg/mL tetracycline, 100 μg/mL hygromycin and 500 μg/mL gneticin. The cell culture media is exchanged for tetracycline-free cell culture media 3-7 days before the assay. One day before the assay the cell culture medium is exchanged to DMEM without glutamine and phenol red and supplemented with 10% FCS, 100 μg/mL hygromycin and 500 μg/mL geneticin. On the assay day, the medium of the subconfluent cultures is removed and the cells are detached by addition of 2.5 ml EDTA(0.02%) per 175 cm2 culture flask for 1 minute. The cells are resuspend in Ringer solution (140 mM NaCl, 5 mM KCl, 2.5 mM CaCl2, 1.5 mM MgCl2, 5 mM Glucose, 10 mM Hepes; adjusted to pH 7.4 with NaOH), pooled and Ringer solution added to adjust the volume to 50 mL. The cell suspension is centrifuged for 5 min at 1500 U/min (425 g). The supernatant is removed and the cells washed a second time with 50 ml fresh Ringer solution and centrifuged again as before. The supernatant is again removed and the pellet resuspended in Ringer solution to 1,000,000 cells/ml (1×10^6 cells/mL). The cells are plated onto BD BioCoat Poly-D-Lysine 384 well plates (20.000 cells/well; 20 μl/well). The lid covered plates are then incubated until use at 37° C./10% CO2. For dye loading, 20 μl of Calcium-4 assay kit solution (prepared according to the manufacturer's description in Ringer solution) are added to the cells and the plates are incubated for 80 min 37° C. and then 10 min at room temperature.
Controls, Compound Dilution and Assay Execution:
Each assay plate contained wells with “high” and “low” controls:
Low controls 1% DMSO/ringer solution+basal glutamate activation (defined as 100% CTL).
High controls 10 μM CDPPB+basal glutamate activation (defined as 200% CTL).
Test compounds are dissolved and diluted in DMSO to 100-fold the desired concentrations. In a second step, the compounds are diluted in Ringer solution such that the compounds are 4-fold more concentrated than the desired final assay concentration. The final DMSO concentration was 1%.
20 μl of each compound solution are then transferred to the assay plate and the Ca2+ kinetic is measured to determine any intrinsic compound activity. After 5 min incubation in the FLIPR device, the second stimulation with 20 μl of glutamate in Ringer solution (glutamate concentration adjusted to approximately 5% basal stimulation of the maximal possible glutamate effect) is added and the kinetic Ca2+ response of the wells was measured for the modulation effect.
The peak height of the Ca release related fluorescence signal (9-66) is used for the EC50. The EC50 of the modulation is calculated over a nonlinear regression with GraphPad Prism (Table 1).
In the case of `Cc1cc(-c2cc(CC(C)C)n(CC(=O)N3CCN(c4ccccn4)CC3)n2)ccc1F` [Example 7.01.117], the EC50 came out at 28 nM.

As to `Cc1cc(-c2cc(CC(C)C)n(CC(=O)N3CCN(c4ncccn4)CC3)n2)ccc1F` [Example 7.01.118], the EC50 worked out at 18 nM.

In the case of `COc1ccnc(N2CCN(C(=O)Cn3nc(-c4ccc(C)cn4)cc3-c3ccccc3)CC2)c1` [Example 7.01.119], the EC50 is 19 nM.

Consider `COc1cc(N2CCN(C(=O)Cn3nc(-c4ccc(C)cn4)cc3-c3ccccc3)CC2)ncn1` [Example 7.01.120], for which the half-maximal effective concentration (EC50) was found to be 20 nM.

Take `COc1cc(N2CCN(C(=O)Cn3nc(-c4ccc(F)c(C)c4)cc3CC(C)C)CC2)ncn1` [Example 7.01.121]: the concentration for a half-maximal effect (EC50) amounted to 34 nM.

On to `Cc1cc(-c2cc(CC(C)C)n(CC(=O)N3CCN(c4ncc(F)cn4)CC3)n2)ccc1F` [Example 7.01.122], for which the EC50 is 51 nM.

Regarding `COc1cnc(N2CCN(C(=O)Cn3nc(-c4ccc(F)c(C)c4)cc3CC(C)C)CC2)nc1` [Example 7.01.123], the EC50 was found to be 36 nM.

On to `Cc1ccc(-c2cc(-c3ccccc3)n(CC(=O)N3CCN(c4ncccn4)CC3)n2)nc1C` [Example 7.01.124], for which the EC50 is 8 nM.

For the compound `CCc1cccc(-c2cc(CC)n(CC(=O)N3CCN(c4ccccn4)CC3)n2)c1` [Example 7.01.128], the 50% effective concentration (EC50) came to 204 nM.

In the case of `CCc1cccc(-c2cc(CC)n(CC(=O)N3CCN(c4cc(OC)ncn4)CC3)n2)c1` [Example 7.01.129], the EC50 worked out at 212 nM.

For the compound `CCc1cccc(-c2cc(CC)n(CC(=O)N3CCN(c4ncc(F)cn4)CC3)n2)c1` [Example 7.01.130], the half-maximal effective concentration (EC50) stood at 471 nM.

Regarding `CCc1cccc(-c2cc(CC)n(CC(=O)N3CCN(c4ncccn4)CC3)n2)c1` [Example 7.01.131], the concentration for a half-maximal effect (EC50) was found to be 59 nM.

For `CCc1cccc(-c2cc(CC)n(CC(=O)N3CCN(c4ncc(OC)cn4)CC3)n2)c1` [Example 7.01.132], the concentration for a half-maximal effect (EC50) amounted to 138 nM.

On to `Cc1ccc(-c2cc(-c3ccccc3)nn2CC(=O)N2CCN(c3ncccn3)CC2)nc1C` [Example 7.01.133], for which the EC50 is 652 nM.

With `Cc1cnc(-c2cc(-c3ccccc3)nn2CC(=O)N2CCN(c3ncccn3)CC2)cc1C` [Example 7.01.134], the EC50 is 865 nM.

In the case of `Cc1cnc(-c2cc(-c3ccccc3)n(CC(=O)N3CCN(c4ncccn4)CC3)n2)cc1C` [Example 7.01.135], the EC50 is 21 nM.

For the compound `Cc1cnc(-c2cc(-c3ccccc3)n(CC(=O)N3CCN(c4ccccn4)CC3)n2)cc1C` [Example 7.01.136], the EC50 amounted to 38 nM.

Take `CCc1cc(-c2cc(C)c(F)c(C)c2)nn1CC(=O)N1CCN(c2ncccn2)CC1` [Example 7.01.138]: the EC50 was determined as 230 nM.

As for `CCc1cc(-c2cc(C)c(F)c(C)c2)nn1CC(=O)N1CCN(c2ccccn2)CC1` [Example 7.01.139], the EC50 was 595 nM.

With `CCc1cc(-c2cc(C)c(F)c(C)c2)nn1CC(=O)N1CCN(c2cc(OC)ncn2)CC1` [Example 7.01.140], the EC50 was 707 nM.

For the compound `CCc1cc(-c2cc(C)c(F)c(C)c2)nn1CC(=O)N1CCN(c2ncc(OC)cn2)CC1` [Example 7.01.141], the half-maximal effective concentration (EC50) was found to be 346 nM.

For `CCc1cc(-c2cc(C)c(F)c(C)c2)nn1CC(=O)N1CCN(c2ncc(F)cn2)CC1` [Example 7.01.142], the EC50 is 704 nM.

On to `O=C(Cn1nc(-c2ccccc2)cc1-c1cc(Cl)cs1)N1CCN(c2ncccn2)CC1` [Example 7.01.143], for which the concentration for a half-maximal effect (EC50) came to 20 nM.

Take `COc1cccc(N2CCN(C(=O)Cn3nc(-c4ccc(F)c(C)c4)cc3-c3ccccc3)CC2)c1` [Example 7.01.144]: the EC50 was determined as 57 nM.

As to `CCc1cc(-c2ccc(F)c(C)c2)nn1CC(=O)N1CCN(c2cccc(OC)c2)CC1` [Example 7.01.145], the EC50 is 216 nM.

Consider `COc1cnc(N2CCN(C(=O)Cn3nc(-c4cccc(Cl)c4)cc3-c3ccccc3)CC2)nc1` [Example 7.01.147], for which the EC50 came to 19 nM.

Regarding `COc1cc(N2CCN(C(=O)Cn3nc(-c4cccc(Cl)c4)cc3-c3ccccc3)CC2)ncn1` [Example 7.01.148], the EC50 is 20 nM.

Turning to `O=C(Cn1nc(-c2cccc(Cl)c2)cc1-c1ccccc1)N1CCN(c2ncccn2)CC1` [Example 7.01.149], the concentration giving a half-maximal response (EC50) is 12 nM.

As for `COc1cc(-c2cc(-c3ccccc3)n(CC(=O)N3CCN(c4ncccn4)CC3)n2)ccc1F` [Example 7.01.150], the 50% effective concentration (EC50) was found to be 5 nM.

Take `COc1cc(-c2cc(-c3ccccc3)n(CC(=O)N3CCN(c4ccccn4)CC3)n2)ccc1F` [Example 7.01.151]: the EC50 amounted to 19 nM.

For the compound `COc1cc(N2CCN(C(=O)Cn3nc(-c4ccc(F)c(OC)c4)cc3-c3ccccc3)CC2)ncn1` [Example 7.01.152], the concentration giving a half-maximal response (EC50) amounted to 26 nM.

Regarding `COc1cc(-c2cc(-c3ccccc3)nn2CC(=O)N2CCN(c3ncccn3)CC2)ccc1F` [Example 7.01.153], the EC50 came to 276 nM.

Take `Cc1nc(-c2cc(-c3ccccc3)n(CC(=O)N3CCN(c4ncccn4)CC3)n2)ccc1F` [Example 7.01.154]: the EC50 came out at 11 nM.

Turning to `Cc1nc(-c2cc(-c3ccccc3)n(CC(=O)N3CCN(c4ccccn4)CC3)n2)ccc1F` [Example 7.01.155], the half-maximal effective concentration (EC50) amounted to 24 nM.

For `COc1cc(N2CCN(C(=O)Cn3nc(-c4ccc(F)c(C)n4)cc3-c3ccccc3)CC2)ncn1` [Example 7.01.156], the 50% effective concentration (EC50) is 33 nM.

Regarding `Cc1cc(-c2cc(-c3ccccc3)n(CC(=O)N3CCN(c4ncccn4)CC3)n2)ncc1F` [Example 7.01.157], the 50% effective concentration (EC50) was found to be 35 nM.

On to `Cc1cc(-c2cc(-c3ccccc3)n(CC(=O)N3CCN(c4ccccn4)CC3)n2)ncc1F` [Example 7.01.158], for which the EC50 worked out at 79 nM.

As for `COc1cc(N2CCN(C(=O)Cn3nc(-c4cc(C)c(F)cn4)cc3-c3ccccc3)CC2)ncn1` [Example 7.01.159], the EC50 came to 39 nM.

Turning to `CCc1cc(-c2cccc(C#N)c2)nn1CC(=O)N1CCN(c2ncccn2)CC1` [Example 7.01.160], the EC50 is 250 nM.

For the compound `CCc1cc(-c2cccc(C#N)c2)nn1CC(=O)N1CCN(c2ccccn2)CC1` [Example 7.01.161], the EC50 was 297 nM.

With `CCc1cc(-c2cccc(C#N)c2)nn1CC(=O)N1CCN(c2ncc(OC)cn2)CC1` [Example 7.01.162], the EC50 was 343 nM.

As to `CCc1cc(-c2cccc(C#N)c2)nn1CC(=O)N1CCN(c2cc(OC)ncn2)CC1` [Example 7.01.163], the EC50 was 490 nM.

In the case of `Cc1cccc(-c2cc(-c3ccccc3)nn2CC(=O)N2CCN(c3ncccn3)CC2)c1` [Example 7.01.164], the concentration giving a half-maximal response (EC50) is 42 nM.

As for `Cc1cccc(-c2cc(-c3ccccc3)n(CC(=O)N3CCN(c4ncccn4)CC3)n2)c1` [Example 7.01.165], the EC50 came out at 4 nM.

`Cc1cccc(-c2cc(-c3ccccc3)n(CC(=O)N3CCN(c4ccccn4)CC3)n2)c1` [Example 7.01.166]: the concentration for a half-maximal effect (EC50) worked out at 8 nM.

In the case of `N#Cc1cccc(-c2cc(-c3ccccc3)n(CC(=O)N3CCN(c4ncccn4)CC3)n2)c1` [Example 7.01.167], the concentration for a half-maximal effect (EC50) is 7 nM.

Take `N#Cc1cccc(-c2cc(-c3ccccc3)n(CC(=O)N3CCN(c4ccccn4)CC3)n2)c1` [Example 7.01.168]: the EC50 came to 12 nM.

On to `COc1cnc(N2CCN(C(=O)Cn3nc(-c4cccc(C#N)c4)cc3-c3ccccc3)CC2)nc1` [Example 7.01.169], for which the EC50 was 11 nM.

As for `COc1cc(N2CCN(C(=O)Cn3nc(-c4cccc(C#N)c4)cc3-c3ccccc3)CC2)ncn1` [Example 7.01.170], the EC50 came out at 22 nM.

As usually defined, the EC50 is the concentration giving half of the maximal effect.
